Measurements taken from patent publication US20240058422A1, “GLUCAGON-LIKE PEPTIDE-1 RECEPTOR ANTAGONISTS” (INDIANA UNIVERSITY RESEARCH AND TECHNOLOGY CORPORATION, priority 2022, published 2024).
In brackets after ≈: the same amount, converted by molar mass. Entries after “also recorded” stand apart in the source; their conditions may differ. Starred links: 1 amine or outer side, 2 acyl side, 3 side chain; linkers in the order of their positions; H or OH if unused. Non-standard residues stand in square brackets, D forms with d. Residues, ends and D or L forms follow the SMILES beside them. Groups on a side chain read outwards from the residue. No end group written: not given here. *: point of attachment. miniPEG = miniature polyethylene glycol spacer (mPEG); C18 diacid = O=C(O)CCCCCCCCCCCCCCCCC(=O)*; γGlu = O=C(O)[C@H](CCC(=O)[*:2])N[*:1]; Palmitoyl = CCCCCCCCCCCCCCCC(=O)*; pGlu = O=C1CC[C@@H](C(=O)O)N1; Aib = CC(C)(N)C(=O)O

Legend:
GLP-1R [1] = molecular target: T1, GLP-1R (Homo sapiens, UniProt P43220); assay: GLP-1 receptor-mediated cAMP induction, luciferase reporter gene antagonism assay; type: cell-based; set-up: host or cells: HEK 293; settings: Table 4; Aib variants of 9-40am Jant4 K40[C16]; antagonism of 0.05 nM GLP-1, HEK 293 cells; read-out: Bioactivity IC50
In short: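 HEK 293 cells cotransfected with human GLP-1 receptor and CRE-luciferase were serum-deprived 16 h, then given serial peptide dilutions followed by 0.05 nM GLP-1 and incubated 5 h at 37° C.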
Target sequence in this assay (P43220 24-463): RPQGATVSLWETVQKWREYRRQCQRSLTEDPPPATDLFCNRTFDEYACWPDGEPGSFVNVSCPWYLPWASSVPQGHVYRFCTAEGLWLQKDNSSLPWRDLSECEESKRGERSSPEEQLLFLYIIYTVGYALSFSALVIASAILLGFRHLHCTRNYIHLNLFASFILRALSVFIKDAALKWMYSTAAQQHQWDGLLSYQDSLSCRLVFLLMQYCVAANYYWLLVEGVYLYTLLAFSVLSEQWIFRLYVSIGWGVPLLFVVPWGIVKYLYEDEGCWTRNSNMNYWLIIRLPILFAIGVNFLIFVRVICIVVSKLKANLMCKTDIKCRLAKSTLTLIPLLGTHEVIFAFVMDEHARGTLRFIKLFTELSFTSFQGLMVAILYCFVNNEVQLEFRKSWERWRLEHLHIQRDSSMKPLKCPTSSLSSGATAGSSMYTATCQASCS

physchem = settings: pH 7.7, Solubility [mg/mL] 80 mM AmBicarb pH7.7
GLP-1R [2] = molecular target: T1, GLP-1R; assay: IC50 nM; set-up: host or cells: HEK 293
Experimental: Table printed on a drawing sheet, Fig. 10
Head of the field: IC50 nM
Where the first naming reader finds the target: description_of_the_figure: as measured in an in vitro assay using GLP-1R over-expressing 293 cells
Target sequence in this assay (P43220 24-463 limits assumed): as the sequence (P43220 24-463) above

mice [3] = assay: Glucose tolerance test after subcutaneous GLP-1 antagonist; type: in vivo; settings: s.c. antagonist, 4 h later i.p. glucose 1.5 g/kg, FIGS. 2A, 2B
Experimental: FIGS. 2A & 2B present data from a glucose tolerance test wherein mice are subcutaneously administered the GLP-1 antagonist followed four hours later by intraperitoneal administration of glucose (1.5 g glucose per kg body weight).
C57Bl/6 mice were obtained from Jackson Laboratories. Mice were single-or group-housed on a 12:12 h light-dark cycle at 22° C. with free access to food and water. All studies were approved by and performed according to the guidelines of the Institutional Animal Care and Use Committee of the University of Cincinnati.
For the determination of glucose tolerance, mice were subjected to 6 h of fasting and injected intraperitoneally with glucose. Injections consisted of 1.5 g glucose per kg body weight (25% w/v D-glucose (Sigma) in 0.9% w/v saline). Tail blood glucose levels (mg dL-1) were measured using a hand-held glucometer (FreeStyle Freedom Lite) before 0 min and at 15, 30, 60, and 120 min after injection.
Mice received a subcutaneous injection of peptide (in PBS) either 1, 4, 8, 24, 48, 72, or 120 at varying doses before being challenged with an IP injection of dipeptidyl peptidase-IV-protected Ex-4 (0.65 nmol kg-1). A GTT was performed fifteen minutes after the GLP-1 injection. Tail blood glucose values were obtained as described above.

GIP receptor = molecular target: T2, GIP receptor (Homo sapiens, UniProt P48546); settings: GLP-1 receptor versus GIP receptor; cited from earlier work
T2 sequence (P48546 22-466): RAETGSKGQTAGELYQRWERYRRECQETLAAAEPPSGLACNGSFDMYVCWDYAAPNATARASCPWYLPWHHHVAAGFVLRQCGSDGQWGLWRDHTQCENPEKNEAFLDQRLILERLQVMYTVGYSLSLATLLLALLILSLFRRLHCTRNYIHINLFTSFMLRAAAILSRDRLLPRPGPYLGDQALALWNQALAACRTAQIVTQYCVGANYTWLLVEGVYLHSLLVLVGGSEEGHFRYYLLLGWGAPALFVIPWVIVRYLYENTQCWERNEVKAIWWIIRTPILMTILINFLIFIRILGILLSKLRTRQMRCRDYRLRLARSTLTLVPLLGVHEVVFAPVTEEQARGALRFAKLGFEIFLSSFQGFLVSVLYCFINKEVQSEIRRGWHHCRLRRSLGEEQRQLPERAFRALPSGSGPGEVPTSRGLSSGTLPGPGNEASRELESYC

GLP-1R [4] = molecular target: T1, GLP-1R; settings: after site-specific acylation of the human-based antagonist; cited from earlier work
Target sequence in this assay (P43220 24-463, species assumed): as the sequence (P43220 24-463) above

mice [5] = assay: Blood glucose levels in mice subcutaneously injected with GLP-1 antagonist; type: in vivo; settings: s.c. 10, 30, 100, 300 nmol/kg, measured at 24, 48, 72 hrs, FIG. 8
Source text: over time, where X=C18-diacid and O=Lys(C18-diacid).

human GLP-1 receptor = human GLP-1 receptor (human, UniProt P43220 24-463); assay: cell-based or functional assay

Molecule: CCCCCCCCCCCCCCCC(=O)NCCCC[C@H](NC(=O)[C@H](CO)NC(=O)[C@@H]1CCCN1C(=O)[C@@H]1CCCN1C(=O)[C@@H]1CCCN1C(=O)[C@H](C)NC(=O)CNC(=O)[C@H](CO)NC(=O)[C@H](CO)NC(=O)[C@@H]1CCCN1C(=O)CNC(=O)CNC(=O)[C@H](CCCCN)NC(=O)[C@@H](NC(=O)C(C)(C)NC(=O)[C@H](Cc1c[nH]c2ccccc12)NC(=O)[C@H](C)NC(=O)[C@@H](NC(=O)[C@H](Cc1ccccc1)NC(=O)[C@H](CCC(=O)O)NC(=O)[C@H](CCCNC(=N)N)NC(=O)[C@@H](NC(=O)[C@H](C)NC(=O)[C@H](CCC(N)=O)NC(=O)[C@H](CCC(=O)O)NC(=O)[C@H](CCC(=O)O)NC(=O)[C@H](CC(C)C)NC(=O)[C@H](Cc1ccc(O)cc1)NC(=O)[C@H](CO)NC(=O)[C@H](CO)NC(=O)[C@@H](NC(=O)[C@@H](N)CC(=O)O)C(C)C)C(C)C)[C@@H](C)CC)C(C)C)C(N)=O [compound 44] (H-DVSSYLEEQAVREFIAW[Aib]VKGGPSSGAPPPSK(Palmitoyl)-NH2)
- IC50 (GLP-1R [1]): 0.008 µM
- solubility (Solubility in buffer; PBS, pH 7.7, Solubility [mg/mL] PBS pH7.7, Table 4, PBS pH7.7): 0.1 mg/mL (≈ 27.7 µM)
- solubility (physchem): 19 mg/mL (≈ 5260 µM)

Molecule: CCCCCCCCCCCCCCCC(=O)NCCCC[C@H](NC(=O)[C@H](CO)NC(=O)[C@@H]1CCCN1C(=O)[C@@H]1CCCN1C(=O)[C@@H]1CCCN1C(=O)[C@H](C)NC(=O)CNC(=O)[C@H](CO)NC(=O)[C@H](CO)NC(=O)[C@@H]1CCCN1C(=O)CNC(=O)CNC(=O)[C@H](CCCCN)NC(=O)[C@@H](NC(=O)[C@H](CC(C)C)NC(=O)[C@H](Cc1c[nH]c2ccccc12)NC(=O)[C@H](C)NC(=O)[C@@H](NC(=O)[C@H](Cc1ccccc1)NC(=O)[C@H](CCC(=O)O)NC(=O)[C@H](CCCNC(=N)N)NC(=O)[C@@H](NC(=O)[C@H](C)NC(=O)[C@H](CCC(N)=O)NC(=O)[C@H](CCC(=O)O)NC(=O)[C@H](CCC(=O)O)NC(=O)[C@H](CC(C)C)NC(=O)[C@H](Cc1ccc(O)cc1)NC(=O)[C@H](CO)NC(=O)[C@H](CO)NC(=O)[C@@H](NC(=O)[C@@H](N)CC(=O)O)C(C)C)C(C)C)[C@@H](C)CC)C(C)C)C(N)=O [compound 47] (H-DVSSYLEEQAVREFIAWLVKGGPSSGAPPPSK(Palmitoyl)-NH2; N-terminus assumed)
- solubility (Solubility in buffer; 80 mM ammonium bicarbonate buffer, pH 7.7, Solubility 80 mM AmeBicarb pH7.7, Table 3, 80 mM AmeBicarb pH7.7): 6.1 mg/mL (≈ 1680 µM)
- solubility (physchem): 6.1 mg/mL (≈ 1680 µM)

Molecule: CC[C@H](C)[C@H](NC(=O)[C@H](Cc1ccccc1)NC(=O)[C@H](CCC(=O)O)NC(=O)[C@H](CCCNC(=N)N)NC(=O)[C@@H](NC(=O)[C@H](C)NC(=O)[C@H](CCC(N)=O)NC(=O)[C@H](CCC(=O)O)NC(=O)[C@H](CCC(=O)O)NC(=O)[C@H](CC(C)C)NC(=O)[C@H](Cc1ccc(O)cc1)NC(=O)[C@H](CO)NC(=O)[C@H](CO)NC(=O)[C@@H](NC(=O)[C@H](CC(=O)O)NC(=O)CCCCCCCCCCCCCCCCC(=O)O)C(C)C)C(C)C)C(=O)N[C@@H](C)C(=O)N[C@@H](Cc1c[nH]c2ccccc12)C(=O)N[C@@H](CC(C)C)C(=O)N[C@H](C(=O)N[C@@H](CCCNC(=N)N)C(=O)NCC(=O)NCC(=O)N1CCC[C@H]1C(=O)N[C@@H](CO)C(=O)N[C@@H](CO)C(=O)NCC(=O)N[C@@H](C)C(=O)N1CCC[C@H]1C(=O)N1CCC[C@H]1C(=O)N1CCC[C@H]1C(=O)N[C@@H](CO)C(=O)O)C(C)C [compound 1416] ({C18 diacid}-DVSSYLEEQAVREFIAWLVRGGPSSGAPPPS-OH)
- IC50 (GLP-1R [2]): 0.036 µM

Molecule: CC[C@H](C)[C@H](NC(=O)[C@H](Cc1ccccc1)NC(=O)[C@H](CCC(=O)O)NC(=O)[C@H](CCCNC(=N)N)NC(=O)[C@@H](NC(=O)[C@H](C)NC(=O)[C@H](CCC(N)=O)NC(=O)[C@H](CCC(=O)O)NC(=O)[C@H](CCC(=O)O)NC(=O)[C@H](CC(C)C)NC(=O)[C@H](Cc1ccc(O)cc1)NC(=O)[C@H](CO)NC(=O)[C@H](CO)NC(=O)[C@@H](NC(=O)[C@H](CC(=O)O)NC(=O)CNC(=O)[C@H](CCCCNC(=O)CCCCCCCCCCCCCCCCC(=O)O)NC(=O)[C@@H]1CCC(=O)N1)C(C)C)C(C)C)C(=O)N[C@@H](C)C(=O)N[C@@H](Cc1c[nH]c2ccccc12)C(=O)N[C@@H](CC(C)C)C(=O)N[C@H](C(=O)N[C@@H](CCCNC(=N)N)C(=O)NCC(=O)NCC(=O)N1CCC[C@H]1C(=O)N[C@@H](CO)C(=O)N[C@@H](CO)C(=O)NCC(=O)N[C@@H](C)C(=O)N1CCC[C@H]1C(=O)N1CCC[C@H]1C(=O)N1CCC[C@H]1C(=O)N[C@@H](CO)C(=O)O)C(C)C [compound 1417] ([pGlu]K(C18 diacid)GDVSSYLEEQAVREFIAWLVRGGPSSGAPPPS-OH)
- IC50 (GLP-1R [2]): 0.08 µM

Molecule: CC[C@H](C)[C@H](NC(=O)[C@H](Cc1ccccc1)NC(=O)[C@H](CCC(=O)O)NC(=O)[C@H](CCCNC(=N)N)NC(=O)[C@@H](NC(=O)[C@H](C)NC(=O)[C@H](CCC(N)=O)NC(=O)[C@H](CCC(=O)O)NC(=O)[C@H](CCC(=O)O)NC(=O)[C@H](CC(C)C)NC(=O)[C@H](Cc1ccc(O)cc1)NC(=O)[C@H](CO)NC(=O)[C@H](CO)NC(=O)[C@@H](NC(=O)[C@H](CC(=O)O)NC(=O)[C@@H]1CCC(=O)N1)C(C)C)C(C)C)C(=O)N[C@@H](C)C(=O)N[C@@H](Cc1c[nH]c2ccccc12)C(=O)N[C@@H](CC(C)C)C(=O)N[C@H](C(=O)N[C@@H](CCCNC(=N)N)C(=O)NCC(=O)NCC(=O)N1CCC[C@H]1C(=O)N[C@@H](CO)C(=O)N[C@@H](CO)C(=O)NCC(=O)N[C@@H](C)C(=O)N1CCC[C@H]1C(=O)N1CCC[C@H]1C(=O)N1CCC[C@H]1C(=O)N[C@@H](CO)C(=O)N[C@@H](CCCCNC(=O)CCCCCCCCCCCCCCCCC(=O)O)C(=O)O)C(C)C [compound 1418, Z DVSSYLEEQAVREFIAWLVRGGPSSGAPPPSO-acid] ([pGlu]DVSSYLEEQAVREFIAWLVRGGPSSGAPPPSK(C18 diacid)-OH)
- IC50 (GLP-1R [2]; read-out: IC50): 0.067 µM

Molecule: DVSRYLEEQAVREFIEWLVRGGPSSGAPPPSK[miniPEG-γE-C16]-OH (DVSRYLEEQAVREFIEWLVRGGPSSGAPPPSK([miniPEG-γGlu-Palmitoyl])-OH) [SEQ ID NO: 16]
- GLP-1 antagonist activity in glucose tolerance test (mice [3]): full antagonist; also recorded: much higher potency than the GLP-1 antagonist Ex-9-40

Molecule: DVSSYLEEQAVREFIAWLVKGGPSSGAPPPSK[C16]-OH (DVSSYLEEQAVREFIAWLVKGGPSSGAPPPSK(Palmitoyl)-OH) [SEQ ID NO: 3]
- selectivity relative to the GIP receptor (GIP receptor): 10 fold
- potency as a GLP-1 receptor antagonist (GLP-1R [4]): increased potency

Molecule: X-DVSSYLEEQAVREFIAWLVRGGPSSGAPPPSO-acid [MBX 1407]
- glucose blood levels (mice [5]): dose dependent response

Molecule: XGDLSKQMEEEAVRLFIEWLKNGGPSSGAPPPS (dK at position 7 acylated with Peg2-gE(C16); C-terminal amide (-NH2)) [Ex9-39amide, dK7 (PEG2-γE(C16)), G8]
- IC50 (nM): block of cAMP induction by GLP-1 (0.05 nM), luciferase reporter in HEK 293 cells with human GLP-1 receptor (human GLP-1 receptor): 6.2 nM
